Source: ChEMBL document CHEMBL3227970, “The benzodiazepine story” (J Med Chem, 1979)
Values joined by “and” are separate entries in the source; they are usually repeats but may differ in a detail not shown here. Equal entries are not always repeated. Active and inactive are the calls of the source. No cut-off for these calls is given here.

What was measured:
Mus musculus [1] = assay: Induction of muscle relaxation/sedation in po dosed mouse by inclined screen test; type: functional
Mus musculus [2] = assay: Induction of taming effect in po dosed mouse by foot shock method; type: functional
Felis catus = assay: Muscle relaxing activity in po dosed cat; type: functional
Mus musculus [3] = assay: Anticonvulsant activity in po dosed mouse assessed as reduction of pentylenetetrazole-induced seizures; type: functional
Mus musculus [4] = assay: Anticonvulsant activity in po dosed mouse assessed as reduction of maximal electroshock-induced seizures; type: functional
Mus musculus [5] = assay: Anticonvulsant activity in po dosed mouse assessed as reduction of minimal electroshock-induced seizures; type: functional
Mus musculus [6] = species: Mus musculus; assay: Toxicity in mouse assessed as effect on central nervous system; type: organism-based; conditions: in vivo
Rhesus monkey = assay: Induction of taming effect in monkey by foot shock method; type: functional, organism-based; conditions: Macaca mulatta
Mus musculus [7] = species: Mus musculus; assay: Toxicity in mouse; type: organism-based; conditions: in vivo

| SMILES | Activity (Mus musculus [1]) | Activity (Mus musculus [2]) [mg/kg] | Activity (Felis catus) [mg/kg] | Activity (Mus musculus [3]) [mg/kg] | Activity (Mus musculus [4]) [mg/kg] | Activity (Mus musculus [5]) [mg/kg] | Activity (Mus musculus [6]) | Activity (Rhesus monkey) | Activity (Mus musculus [7]) [mg/kg] |
| --- | --- | --- | --- | --- | --- | --- | --- | --- | --- |
| CNC1=Nc2ccc(Cl)cc2C(c2ccccc2)=[N+]([O-])C1.Cl [CHLORDIAZEPOXIDE HYDROCHLORIDE] | 100 mg/kg | 40 | 2 | 18 | 92 | 150 | Non-toxic | Active | 620 |
| CN(C)CCCN1c2ccccc2Sc2ccc(Cl)cc21 [CHLORPROMAZINE] | 17 mg/kg | 20 | 2.5 | 42 | 150 | 600 | Toxic | – | – |
| O=C1C[N+]([O-])=C(c2ccccc2)c2cc(Cl)ccc2N1 [DEMOXEPAM] | 100 mg/kg | 20 | 2 | 15 | 150 | 150 | – | – | – |
| CN1C(=O)CN=C(c2ccccc2)c2cc(Cl)ccc21 [DIAZEPAM] | 75 mg/kg and 30 mg/kg | – | – | – | – | – | – | – | – |
| CCCC(C)(COC(N)=O)COC(N)=O [MEPROBAMATE] | 250 mg/kg | 250 | 100 | 150 | 200 | 167 | – | – | – |
| CCC1(c2ccccc2)C(=O)NC(=O)NC1=O [PHENOBARBITAL] | 120 mg/kg | 80 | 10 | 75 | 18 | 90 | – | – | – |
| COC(=O)[C@H]1[C@H]2C[C@@H]3c4[nH]c5cc(OC)ccc5c4CCN3C[C@H]2C[C@@H](OC(=O)c2cc(OC)c(OC)c(OC)c2)[C@@H]1OC [RESERPINE] | – | – | – | – | – | – | Toxic | – | – |
